Measured values as given in ChEMBL document CHEMBL5385887, “Discovery of Sibiriline derivatives as novel receptor-interacting protein kinase 1 inhibitors” (Eur J Med Chem, 2023).
Active and inactive are the calls of the source. The rule behind the calls is not given here.

Key:
[1] = tested on: Mus musculus; experiment: (§1) In vivo anti-necroptotic effect in TNFalpha-induced systemic inflammatory response syndrome C57BL/6J mouse model assessed as reduction in hypothermic injury by measuring increase in survival at 25 mg/kg, ip followed by compound treatment after 1 hr injected moue TNFalpha and measured continuously upto 72 hrs; format: functional; conditions: time 73 hrs
[2] = tested on: Mus musculus; experiment: In vivo anti-necroptotic effect in TNFalpha-induced systemic inflammatory response syndrome C57BL/6J mouse model assessed as reduction in hypothermic injury at 10 to 40 mg/kg, ip followed by compound treatment after 1 hr injected moue TNFalpha and measured continuously upto 72 hrs; format: functional, organism-based; conditions: dose 10-40 mg/kg, time 73.0 hrs
[3] = tested on: L929; experiment: Anti-necroptosis activity against TNFalpha/z-VAD-fmk-induced mouse L929 cell necroptosis model assessed as cell viability pretreated with compound for 1 hr followed by treated with TZ for 6 hrs; format: functional, cell-based
[4] = biological target: Receptor-interacting serine/threonine-protein kinase 3 (Mus musculus) (UniProt Q9QZL0); experiment: Inhibition of RIPK3 phosphorylation in mouse L929 cells at 250 nM by Western blotting analysis; format: cell-based; conditions: time 0.5-2.5 hrs, TDE = time-dependent effect
[5] = tested on: L929; experiment: Anti-necroptosis activity against TNFalpha/z-VAD-fmk-induced mouse L929 cell necroptosis model assessed as prevention of necroptosis pretreated with compound for 1 hr followed by treated with TZ for 6 hrs by Hoechst 33342/PI staining based flow cytometric analysis; format: functional; conditions: dose 10-250 nmol/L, time 7.0 hrs
[6] = tested on: HT-29; experiment: Anti-necroptosis activity against TS-induced human HT-29 cell necroptosis model assessed as cell viability at 0.039 to 10 uM pretreated with compound for 1 hr followed by treated with TS for 12 hrs; format: functional, cell-based; conditions: dose 0.039-10 µM
[7] = tested on: Mus musculus; experiment: as §1, with “10” for “25”; format: functional; conditions: time 73 hrs
[8] = tested on: HT-29; experiment: Anti-necroptosis activity against TSZ-induced human HT-29 cell necroptosis model assessed as cell viability pretreated with compound for 1 hr followed by treated with TSZ for 12 hrs; format: functional, cell-based; conditions: dose 0.039-10 µM, time 13.0 hrs
[9] = tested on: L929; experiment: Anti-necroptosis activity against TNFalpha/z-VAD-fmk-induced mouse L929 cell necroptosis model assessed as increase in viable cells pretreated with compound for 1 hr followed by treated with TZ for 6 hrs by Hoechst 33342/PI staining based flow cytometric analysis; format: functional; conditions: time 7.0 hrs
[10] = biological target: T1, Mixed lineage kinase domain-like protein (Mus musculus) (UniProt Q9D2Y4); experiment: Inhibition of MLKL phosphorylation in mouse L929 cells at 250 nM incubated for 0.5 to 2.5 hrs by Western blotting analysis; format: cell-based; conditions: time 0.5-2.5 hrs
T1 sequence (whole entry): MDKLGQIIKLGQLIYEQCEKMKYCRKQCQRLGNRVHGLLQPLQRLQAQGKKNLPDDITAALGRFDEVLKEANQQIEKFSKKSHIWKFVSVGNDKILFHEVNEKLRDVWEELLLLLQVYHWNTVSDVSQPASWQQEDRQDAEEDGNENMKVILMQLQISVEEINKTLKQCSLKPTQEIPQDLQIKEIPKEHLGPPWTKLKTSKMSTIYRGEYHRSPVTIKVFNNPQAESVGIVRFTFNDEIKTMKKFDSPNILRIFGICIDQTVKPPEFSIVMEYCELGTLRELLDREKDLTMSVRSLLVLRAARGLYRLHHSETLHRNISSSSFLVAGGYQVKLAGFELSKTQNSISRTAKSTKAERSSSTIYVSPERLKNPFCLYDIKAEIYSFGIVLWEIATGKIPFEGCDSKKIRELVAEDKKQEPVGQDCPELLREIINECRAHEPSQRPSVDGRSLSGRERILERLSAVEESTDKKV

[11] = biological target: T2, Receptor-interacting serine/threonine-protein kinase 1 (Mus musculus) (UniProt Q60855); experiment: Inhibition of RIPK1 phosphorylation in mouse L929 cells at 250 nM by Western blotting analysis; format: cell-based; conditions: time 0.5-2.5 hrs, TDE = time-dependent effect
T2 sequence (whole entry): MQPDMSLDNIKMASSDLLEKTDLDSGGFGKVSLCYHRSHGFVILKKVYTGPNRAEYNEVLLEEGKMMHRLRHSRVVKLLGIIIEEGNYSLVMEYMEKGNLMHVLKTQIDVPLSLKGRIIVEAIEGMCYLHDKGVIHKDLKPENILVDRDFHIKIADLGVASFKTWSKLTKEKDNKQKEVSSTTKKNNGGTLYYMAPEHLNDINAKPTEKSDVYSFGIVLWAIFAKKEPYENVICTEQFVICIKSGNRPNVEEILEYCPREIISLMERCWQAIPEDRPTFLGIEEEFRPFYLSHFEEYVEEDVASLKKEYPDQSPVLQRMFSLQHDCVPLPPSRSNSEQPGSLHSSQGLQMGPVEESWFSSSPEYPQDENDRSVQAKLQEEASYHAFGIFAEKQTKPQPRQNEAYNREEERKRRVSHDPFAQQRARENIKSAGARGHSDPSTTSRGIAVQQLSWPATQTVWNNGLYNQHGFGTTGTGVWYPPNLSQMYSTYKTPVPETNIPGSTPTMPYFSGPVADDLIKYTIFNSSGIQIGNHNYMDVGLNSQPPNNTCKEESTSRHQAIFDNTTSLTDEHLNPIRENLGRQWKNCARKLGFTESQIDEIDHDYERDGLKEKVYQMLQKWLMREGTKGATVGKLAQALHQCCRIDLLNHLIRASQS

[12] = tested on: U-937; experiment: Anti-necroptosis activity against TSZ-induced human U937 cell necroptosis model assessed as cell viability pretreated with compound for 1 hr followed by treated with TSZ for 12 hrs; format: functional, cell-based; conditions: dose 0.039-10 µM, time 13.0 hrs
[13] = tested on: Mus musculus; experiment: as §1, with “40” for “25”; format: functional; conditions: time 73 hrs
[14] = biological target: T3, Receptor-interacting serine/threonine-protein kinase 1 (Homo sapiens, UniProt Q13546); experiment: Inhibition of RIPK1 (unknown origin) using MBP substrate incubated for 2 hrs by ADP-Glo kinase function assay
T3 sequence (Q13546 whole entry): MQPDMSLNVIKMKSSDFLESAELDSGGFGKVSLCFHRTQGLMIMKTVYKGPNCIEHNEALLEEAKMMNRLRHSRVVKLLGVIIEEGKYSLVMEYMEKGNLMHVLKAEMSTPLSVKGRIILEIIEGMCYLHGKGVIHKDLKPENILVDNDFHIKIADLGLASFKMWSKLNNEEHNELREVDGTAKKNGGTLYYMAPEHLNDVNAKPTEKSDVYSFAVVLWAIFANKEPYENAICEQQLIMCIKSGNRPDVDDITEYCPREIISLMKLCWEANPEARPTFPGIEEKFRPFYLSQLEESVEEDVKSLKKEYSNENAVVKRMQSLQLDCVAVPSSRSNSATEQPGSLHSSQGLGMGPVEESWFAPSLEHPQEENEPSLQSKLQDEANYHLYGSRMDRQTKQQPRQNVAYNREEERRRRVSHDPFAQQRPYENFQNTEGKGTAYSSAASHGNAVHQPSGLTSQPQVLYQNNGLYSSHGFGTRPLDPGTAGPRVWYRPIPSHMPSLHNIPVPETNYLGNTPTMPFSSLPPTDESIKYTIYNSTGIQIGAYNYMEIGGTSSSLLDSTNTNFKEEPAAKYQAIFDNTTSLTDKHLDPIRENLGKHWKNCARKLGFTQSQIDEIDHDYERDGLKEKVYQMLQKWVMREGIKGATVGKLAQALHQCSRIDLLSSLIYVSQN

[15] = Cytotoxicity against mouse L929 cells by CCK-8 assay; format: toxicity, cell-based

Receptor-interacting serine/threonine-protein kinase 3 (Mus musculus), sequence (Q9QZL0 whole entry): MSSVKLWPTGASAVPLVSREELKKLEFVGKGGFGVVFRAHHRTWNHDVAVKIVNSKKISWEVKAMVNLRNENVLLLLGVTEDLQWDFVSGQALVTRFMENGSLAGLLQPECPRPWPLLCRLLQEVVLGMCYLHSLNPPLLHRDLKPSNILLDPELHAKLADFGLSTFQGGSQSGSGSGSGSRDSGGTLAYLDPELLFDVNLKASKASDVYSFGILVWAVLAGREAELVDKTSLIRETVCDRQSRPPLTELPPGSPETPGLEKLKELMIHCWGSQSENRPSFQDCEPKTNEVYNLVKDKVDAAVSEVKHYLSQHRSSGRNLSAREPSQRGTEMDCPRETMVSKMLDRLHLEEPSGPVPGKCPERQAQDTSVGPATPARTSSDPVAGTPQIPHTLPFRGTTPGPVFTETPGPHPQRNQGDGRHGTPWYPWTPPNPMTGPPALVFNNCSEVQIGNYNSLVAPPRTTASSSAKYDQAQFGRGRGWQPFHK

For `O=C(c1ccc(-c2cc3cccnc3[nH]2)cc1)N1CCOCC1`, the survival at 25 mg/kg [1] was 100%, the Activity [2] was “Active” and the EC50 [3] was 0.056 µM. For the same compound, the inhibition [4] was “Tde”, the Activity [5] was “Dose-Dependent Effect” and the Activity [6] was “inactive”. The survival at 10 mg/kg [7] was 75%, the Activity [8] was “Dose-Dependent Effect” and the Activity [9] was “Active”. For the same compound, the inhibition [10] was “Active”, the inhibition [11] was “Tde” and the Activity [12] was “Dose-Dependent Effect”. It also gave a survival at 40 mg/kg [13] of 100%, an IC50 [14] of 0.088 µM and a CC50 [15] of over 50 µM.
